We go through five molecules from US20250360152A1, “NUTRITIONAL COMPOSITION FOR PREVENTING BRONCHITIS” (MEGMILK SNOW BRAND Co., Ltd., priority 2022, published 2025).

The test system of assay [1] is onset of bronchitis in infants. Kind of assay: Logistic regression: breast milk carbohydrate component concentrations vs onset of bronchitis in infants during first year of life (153 samples). The format is in vivo, human. Particulars: for Odds ratio: concentration in breast milk vs onset of infant bronchitis within one year, adjusted for sex, siblings, method of delivery, birth weight; for Regression coefficient / Relationship between concentration and the onset of bronchitis (in words): logistic regression; for Regression coefficient: concentration in breast milk vs onset of infant bronchitis. On the procedure: Various carbohydrate components were measured for 153 breast milk samples, analyzing a relationship with a presence or absence of the onset of bronchitis in infants during the first year of life using a logistic regression.
(§1) Bean Stalk Snow Co., Ltd. Conducted a prospective cohort study (UMIN ID 000015494) from 2014 to 2019 for investigating the relationship between the breast milk components of Japanese and a health status of mothers and children in Japan. In the study, breast milk samples collected from 1,210 mothers and questionnaire results of investigating the health status of mothers and children were used in the study. In addition, 200 samples were randomly selected from the 1,210 samples. The breast milk collected between 1 and 2 months after childbirth was used as the breast milk samples for analysis. Parents filled out questionnaires investigating the health status of their infants six times in total, every two months for one year after birth, and the results were collected. From the questionnaire results, the results were compiled of whether or not the infants were diagnosed with the bronchitis by a doctor within one year after the childbirth. If a description of a presence or absence of the onset of bronchitis was unclear, they were excluded from the study.
(§2) As a result, in the questionnaires conducted six times in total in a year, for 153 samples, questionnaires were answered correctly about whether the infants had been diagnosed with the bronchitis, and the samples became subjects to be analyzed in the study. Of the 153 samples, 18 samples were from infants diagnosed with the bronchitis within one year of birth.
For the 153 breast milk samples, the relationship between the concentrations of N-acetylneuraminic acid, the oligosaccharide, the N-linked glycan, the O-linked glycan, the disialo N-linked glycan A, and the disialo N-linked glycan B and the onset of infant bronchitis was analyzed using the logistic regression. Sex of the infant, a presence or absence of siblings, the method of delivery (natural birth, cesarean section), and a birth weight were used as adjustment factors.

Assay [2] concerns onset of bronchitis in infants. Kind of assay: Two-group comparison of breast milk concentrations (infants ever vs never contracted bronchitis) and Fisher's exact test at a cut-off concentration. It is filed as in vivo, human. Particulars: for Concentration in the breast milk that reduces the risk of contracting the bronchitis: cut-off of Fisher's exact test; for Concentration in breast milk consumed by infants who had never contracted bronchitis versus infants who had ever contracted bronchitis: two groups, FIG. 1-5.
Excerpt: as §1, §2
The breast milk samples were divided into two groups, based on whether or not the infants had ever contracted the bronchitis, comparing the total N-acetylneuraminic acids concentrations in the breast milk. […] A distribution range of the total N-acetylneuraminic acids concentrations in the breast milk consumed by the infants who had never contracted the bronchitis was 181-977 mg/L, with a median of 395 mg/L (Table 2). The distribution of the total N-acetylneuraminic acids concentrations was, different from a normal distribution, a distribution spreading out its tail towards its higher end of concentrations. Such a distribution is seen in the distribution of heights and weights of the infants, and the 3rd to 97th percentile of the overall distribution is used as standards when creating growth curves for infants (Infant Physical Development Survey Report 2000). Based on this, the 3rd to 97th percentile was used as a standard range of the total N-acetylneuraminic acids concentrations in the breast milk. A minimum value of the total N-acetylneuraminic acid concentration in the breast milk consumed by the infants who had never contracted the bronchitis was 221 mg/L corresponding to the 3rd percentile of the distribution.

On to “Neu5Acα2-6Galβ1-4GlcNAcβ1-2Manαl-3 (Neu5Acα2-6Galβ1-4GlcNAcβ1-2Manα1-6) Manβ1-4GlcNAcβ1-4GlcNAc [Disialo N-linked glycan A]”, for which, in assay [1], the Odds ratio was found to be 0.15 and the Regression coefficient was −1.918. The Regression coefficient result in assay [1] (listed as disialo N-linked glycan A) is “negative”. Also, in assay [2], the “Concentration in the breast milk that reduces the risk of contracting the bronchitis” value is at least 0.313 µmol/L and the “Concentration in breast milk consumed by infants who had never contracted bronchitis versus infants who had ever contracted bronchitis” value is “significantly higher”.

As to `CC(=O)N[C@H]1[C@H]([C@H](O)[C@H](O)CO)O[C@@](O[C@H]2[C@@H](O)[C@@H](CO)O[C@@H](O[C@H]3[C@H](O)[C@@H](O)C(O)O[C@@H]3CO)[C@@H]2O)(C(=O)O)C[C@@H]1O` (some centres unmarked) [3′-SL, 3′-sialyllactose, reference compound], in assay [1], the Odds ratio came to 0.53; the “Relationship between concentration and the onset of bronchitis (in words)” value is recorded as “not observed”; the Regression coefficient is −0.626.

In the case of “Neu5Acα2-6Galβ1-4GlcNAcβ1-2Manα1-3 (Neu5Acα2-6Galβ1-4GlcNAcβ1-2Manα1-6) Manβ1-4GlcNAcβ1-4 (Fucα1-6) GlcNAc [Disialo N-linked glycan B]”, in assay [1], the Odds ratio turned out to be 0.24 and the Regression coefficient was −1.407. In addition, in assay [1] (listed as disialo N-linked glycan B), the Regression coefficient entry is given as “negative”. In assay [2], the “Concentration in the breast milk that reduces the risk of contracting the bronchitis” value is at least 0.245 µmol/L and the “Concentration in breast milk consumed by infants who had never contracted bronchitis versus infants who had ever contracted bronchitis” value is listed as “significantly higher”.

As for `CC(=O)N[C@H]1[C@H]([C@H](O)[C@H](O)CO)O[C@@](OC[C@H]2O[C@@H](O[C@H]3[C@H](O)[C@@H](O)[C@H](O)O[C@@H]3CO)[C@H](O)[C@@H](O)[C@H]2O)(C(=O)O)C[C@@H]1O` [6′-SL, 6′-sialyllactose], in assay [2], the “Concentration in the breast milk that reduces the risk of contracting the bronchitis” value is reported as at least 135 mg/L and the “Concentration in breast milk consumed by infants who had never contracted bronchitis versus infants who had ever contracted bronchitis” value was “significantly higher”.

On to `CC(=O)N[C@H]1[C@H]([C@H](O)[C@H](O)CO)OC(O)(C(=O)O)C[C@@H]1O` (some centres unmarked) [Total N-acetylneuraminic acid, N-acetylneuraminic acid], for which, in assay [1], the Odds ratio amounted to 0.098; the “Relationship between concentration and the onset of bronchitis (in words)” value was “statistically significant relationship”; the Regression coefficient is on record as −2.32. In assay [2], the “Concentration in the breast milk that reduces the risk of contracting the bronchitis” value was at least 246 mg/L and the “Concentration in breast milk consumed by infants who had never contracted bronchitis versus infants who had ever contracted bronchitis” value was “significantly higher”.
